pIC50: −log10 of the molar value.
Assays:
MCT4 [1] = molecular target: T1, MCT4 (Homo sapiens, UniProt O15427); experiment: Assay (a): lactate efflux from SK-Br-3 cells (lactate in media, 4 h); type: cell-based; set-up: a natively glycolytic human breast adenocarcinoma line predominantly expressing MCT4; host or cells: SK-Br-3; settings: mean of at least three repeats (Example 32, marked *, two repeats), read-out: MCT4 lactate efflux pIC50 (SKBR3) (converted)
T1 sequence (O15427 1-465): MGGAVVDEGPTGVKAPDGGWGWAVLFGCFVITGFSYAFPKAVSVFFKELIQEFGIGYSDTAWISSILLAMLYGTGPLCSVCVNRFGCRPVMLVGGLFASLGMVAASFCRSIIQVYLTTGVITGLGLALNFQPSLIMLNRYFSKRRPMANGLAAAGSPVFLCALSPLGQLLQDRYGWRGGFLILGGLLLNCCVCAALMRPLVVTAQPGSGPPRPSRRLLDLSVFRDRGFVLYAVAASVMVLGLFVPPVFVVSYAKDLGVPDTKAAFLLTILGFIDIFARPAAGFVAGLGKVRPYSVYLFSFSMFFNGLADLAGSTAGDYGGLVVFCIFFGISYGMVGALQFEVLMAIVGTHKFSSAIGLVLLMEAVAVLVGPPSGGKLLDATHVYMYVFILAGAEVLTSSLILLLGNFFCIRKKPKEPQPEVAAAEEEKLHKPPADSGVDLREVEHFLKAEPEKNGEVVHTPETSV
Procedure: Assay plates were lidded and incubated for 4 hours at 37° C. and 5% CO2.

MCT4 [2] = molecular target: T1, MCT4; experiment: cell-based
Procedure: Cells were loaded with the pH sensitive dye BCECFAM(Invitrogen #B11150) before being washed to remove excess dye and seeded into the assay plates—directly onto the test compound—at a density of 15,000 cells/well (NCI—H358) or 30,000 cells/well (K562), in 30 μl HBSS with 1 mM [final] […] Assay plates were lidded and spun in a plate centrifuge at 170 g for 1 minute. Plates were then wrapped in foil and incubated in the dark for 1 hour at room temperature.
Following incubation with test compound, 10 μl of 25 mM Sodium-L-Lactate (Sigma #L7022) made up in HBSS with 1 mM [final] […] This addition was performed directly on the FLIPR Tetra platform (Molecular Devices) as part of a real-time kinetic read protocol. […] A percentage change from base-line was calculated for each test well and values normalised to control wells—treated with either DMSO (maximum assay signal) or chemistry related to that described in this patent (minimum assay signal)—before fitting concentration response curves to determine an IC50 value.

`Cc1nc2nc(C)c(C[C@@H]3CCN(c4cnc(-c5ccc(CN6CCN(C)CC6)cc5)nc4)C3)c(C)n2n1` [Example 20, (R)-2,5,7-trimethyl-6-((1-(2-(4-((4-methylpiperazin-1-yl)methyl)phenyl)pyrimidin-5-yl)pyrrolidin-3-yl)methyl)-[1,2,4]triazolo[1,5-a]pyrimidine] was tested, and the IC50 (MCT4 [1]) was 0.501 nM and the pIC50 (MCT4 [2]) was 7.40.
With `Cc1nc2nc(C)c(C[C@@H]3CCN(c4cnc(-c5ccc(CN6CCOCC6)nc5)nc4)C3)c(C)n2n1` [Example 11, (R)-4-((5-(5-(3-((2,5,7-trimethyl-[1,2,4]triazolo[1,5-a]pyrimidin-6-yl)methyl)pyrrolidin-1-yl)pyrimidin-2-yl)pyridin-2-yl)methyl)morpholine] the IC50 (MCT4 [1]) was 0.316 nM and the pIC50 (MCT4 [2]) was 8.10.
`Cc1nc2nc(C)c(C[C@@H]3CCN(c4cnc(-c5ccc(CN6CCCC6)nc5)cn4)C3)c(C)n2n1` [Example 82, (R)-2,5,7-trimethyl-6-((1-(5-(6-(pyrrolidin-1-ylmethyl)pyridin-3-yl)pyrazin-2-yl)pyrrolidin-3-yl)methyl)-[1,2,4]triazolo[1,5-a]pyrimidine] gave an IC50 (MCT4 [1]) of 2.51 nM and a pIC50 (MCT4 [2]) of 7.90.
Compound `Cc1nc2nc(C)c(C[C@@H]3CCN(c4cnc(-c5ccc(CN6CCN(CC(=O)N(C)C)CC6)cc5)cn4)C3)c(C)n2n1` [Example 53, (R)—N,N-dimethyl-2-(4-(4-(5-(3-((2,5,7-trimethyl-[1,2,4]triazolo[1,5-a]pyrimidin-6-yl)methyl)pyrrolidin-1-yl)pyrazin-2-yl)benzyl)piperazin-1-yl)acetamide] has an IC50 (MCT4 [1]) of 0.631 nM and a pIC50 (MCT4 [2]) of 7.60.
Compound `Cc1nc2nc(C)c(C[C@@H]3CCN(c4cnc(-c5ccc(CN6CCN(C(=O)N(C)C)CC6)cc5)cn4)C3)c(C)n2n1` [Example 55, N,N-dimethyl-4-[4-(5-{(3R)-3-[(2,5,7-trimethyl[1,2,4]triazolo[1,5-a]pyrimidin-6-yl)methyl]pyrrolidin-1-yl}pyrazin-2-yl)benzyl]piperazine-1-carboxamide] has an IC50 (MCT4 [1]) of 0.251 nM and a pIC50 (MCT4 [2]) of 8.00.
`Cc1nc2nc(C)c(C[C@@H]3CCN(c4ccc(-c5ccc(CN6CCOCC6)cc5)nn4)C3)c(C)n2n1` [Example 61, (R)-4-(4-(6-(3-((2,5,7-trimethyl-[1,2,4]triazolo[1,5-a]pyrimidin-6-yl)methyl)pyrrolidin-1-yl)pyridazin-3-yl)benzyl)morpholine] gave an IC50 (MCT4 [1]) of 1 nM and a pIC50 (MCT4 [2]) of 8.20.
Work on `Cc1nc2nc(C)c(C[C@@H]3CCN(c4cnc(-c5ccc(CN6CCCCC6)cc5)cn4)C3)c(C)n2n1` [Example 37, 2,5,7-trimethyl-6-[[(3R)-1-[5-[4-(1-piperidylmethyl)phenyl]pyrazin-2-yl]pyrrolidin-3-yl]methyl]-[1,2,4]triazolo[1,5-a]pyrimidine] yielded an IC50 (MCT4 [1]) of 0.398 nM and a pIC50 (MCT4 [2]) of 8.20.
With `Cc1nc2nc(C)c(C[C@@H]3CCN(c4ccc(-c5ccc(CN6CCN(C)CC6)cn5)cc4)C3)c(C)n2n1` [Example 27, (R)-2,5,7-trimethyl-6-((1-(4-(5-((4-methylpiperazin-1-yl)methyl)pyridin-2-yl)phenyl)pyrrolidin-3-yl)methyl)-[1,2,4]triazolo[1,5-a]pyrimidine] the IC50 (MCT4 [1]) was 0.631 nM and the pIC50 (MCT4 [2]) was 7.70.
For `Cc1nc2nc(C)c(C[C@@H]3CCN(c4cnc(-c5ccc(CN6C[C@@H](C)N[C@@H](C)C6)cc5)cn4)C3)c(C)n2n1` [Example 40, 6-(((R)-1-(5-(4-(((3R,5S)-3,5-dimethylpiperazin-1-yl)methyl)phenyl)pyrazin-2-yl)pyrrolidin-3-yl)methyl)-2,5,7-trimethyl-[1,2,4]triazolo[1,5-a]pyrimidine], the IC50 (MCT4 [1]) was 1.26 nM and the pIC50 (MCT4 [2]) was 7.20.
With `COc1cc(CN2CCN(C)CC2)ccc1-c1cnc(N2CC[C@@H](Cc3c(C)nc4nc(C)nn4c3C)C2)cn1` [Example 43, (R)-6-((1-(5-(2-methoxy-4-((4-methylpiperazin-1-yl)methyl)phenyl)pyrazin-2-yl)pyrrolidin-3-yl)methyl)-2,5,7-trimethyl-[1,2,4]triazolo[1,5-a]pyrimidine] the IC50 (MCT4 [1]) was 0.631 nM and the pIC50 (MCT4 [2]) was 7.70.
`Cc1nc2nc(C)c(C[C@@H]3CCN(c4ccc(-c5ccc(CN6CCOCC6)cn5)cc4)C3)c(C)n2n1` [Example 23, (R)-4-((6-(4-(3-((2,5,7-trimethyl-[1,2,4]triazolo[1,5-a]pyrimidin-6-yl)methyl)pyrrolidin-1-yl)phenyl)pyridin-3-yl)methyl)morpholine] showed an IC50 (MCT4 [1]) of 0.398 nM and a pIC50 (MCT4 [2]) of 8.20.
`Cc1nc2nc(C)c(C[C@@H]3CCN(c4ccc(-c5ccc(CN6CCN(C)CC6)cc5)nc4)C3)c(C)n2n1` [Example 8, (R)-2,5,7-trimethyl-6-((1-(6-(4-((4-methylpiperazin-1-yl)methyl)phenyl)pyridin-3-yl)pyrrolidin-3-yl)methyl)-[1,2,4]triazolo[1,5-a]pyrimidine] gave an IC50 (MCT4 [1]) of 0.631 nM and a pIC50 (MCT4 [2]) of 7.60.
Compound `Cc1nc2nc(C)c(C[C@@H]3CCN(c4cnc(-c5ccc(CN6CCN(C)[C@@H](C)C6)cc5)cn4)C3)c(C)n2n1` [Example 48, 6-(((R)-1-(5-(4-(((S)-3,4-dimethylpiperazin-1-yl)methyl)phenyl)pyrazin-2-yl)pyrrolidin-3-yl)methyl)-2,5,7-trimethyl-[1,2,4]triazolo[1,5-a]pyrimidine] has an IC50 (MCT4 [1]) of 1.58 nM and a pIC50 (MCT4 [2]) of 8.00.
Compound `Cc1nc2nc(C)c(C[C@@H]3CCN(c4cnc(-c5ccc(CN6CCOCC6)nc5)cn4)C3)c(C)n2n1` [Example 49, (R)-4-((5-(5-(3-((2,5,7-trimethyl-[1,2,4]triazolo[1,5-a]pyrimidin-6-yl)methyl)pyrrolidin-1-yl)pyrazin-2-yl)pyridin-2-yl)methyl)morpholine] has an IC50 (MCT4 [1]) of 0.631 nM and a pIC50 (MCT4 [2]) of 8.10.
`Cc1nc2nc(C)c(C[C@@H]3CCN(c4cnc(-c5ccc(CN6CCN(CCO)CC6)cc5)nc4)C3)c(C)n2n1` [Example 16, (R)-2-(4-(4-(5-(3-((2,5,7-trimethyl-[1,2,4]triazolo[1,5-a]pyrimidin-6-yl)methyl)pyrrolidin-1-yl)pyrimidin-2-yl)benzyl)piperazin-1-yl)ethanol] showed an IC50 (MCT4 [1]) of 0.501 nM and a pIC50 (MCT4 [2]) of 7.50.
`Cc1nc2nc(C)c(O[C@@H]3CCN(c4cnc(-c5ccc(CN6CCN(C)CC6)cc5)cn4)C3)c(C)n2n1` [Example 77, (R)-2,5,7-trimethyl-6-((1-(5-(4-((4-methylpiperazin-1-yl)methyl)phenyl)pyrazin-2-yl)pyrrolidin-3-yl)oxy)-[1,2,4]triazolo[1,5-a]pyrimidine] showed an IC50 (MCT4 [1]) of 3.98 nM and a pIC50 (MCT4 [2]) of 7.80.
`Cc1nc2nc(C)c(C[C@@H]3CCN(c4cnc(-c5ccc(CN6CCN(C)C[C@@H]6C)cc5)nc4)C3)c(C)n2n1` [Example 10, 6-(((R)-1-(2-(4-(((S)-2,4-dimethylpiperazin-1-yl)methyl)phenyl)pyrimidin-5-yl)pyrrolidin-3-yl)methyl)-2,5,7-trimethyl-[1,2,4]triazolo[1,5-a]pyrimidine] was tested, and the IC50 (MCT4 [1]) was 0.501 nM and the pIC50 (MCT4 [2]) was 7.50.
Compound `Cc1nc2nc(C)c(C[C@@H]3CCN(c4ncc(-c5ccc(CN6CCOCC6)cc5)cn4)C3)c(C)n2n1` [Example 6, (R)-4-(4-(2-(3-((2,5,7-trimethyl-[1,2,4]triazolo[1,5-a]pyrimidin-6-yl)methyl)pyrrolidin-1-yl)pyrimidin-5-yl)benzyl)morpholine] has an IC50 (MCT4 [1]) of 0.631 nM and a pIC50 (MCT4 [2]) of 8.10.
Work on `COc1cc(CN2CCN(C)CC2)ccc1-c1ncc(N2CC[C@@H](Cc3c(C)nc4nc(C)nn4c3C)C2)nc1C` [Example 31, (R)-6-((1-(5-(2-methoxy-4-((4-methylpiperazin-1-yl)methyl)phenyl)-6-methylpyrazin-2-yl)pyrrolidin-3-yl)methyl)-2,5,7-trimethyl-[1,2,4]triazolo[1,5-a]pyrimidine] yielded an IC50 (MCT4 [1]) of 3.16 nM and a pIC50 (MCT4 [2]) of 7.30.
In the case of `Cc1nc2nc(C)c(C[C@@H]3CCN(c4cnc(-c5ccc(CN6CCN(C)CC6)nc5)cn4)C3)c(C)n2n1` [Example 57, (R)-2,5,7-trimethyl-6-((1-(5-(6-((4-methylpiperazin-1-yl)methyl)pyridin-3-yl)pyrazin-2-yl)pyrrolidin-3-yl)methyl)-[1,2,4]triazolo[1,5-a]pyrimidine], the IC50 (MCT4 [1]) was 3.98 nM and the pIC50 (MCT4 [2]) was 6.90.
`Cc1nc2nc(C)c(C[C@@H]3CCN(c4cnc(-c5ccc(CN6CCN(C)CC6)cc5)c(C)n4)C3)c(C)n2n1` [Example 54, (R)-2,5,7-trimethyl-6-((1-(6-methyl-5-(4-((4-methylpiperazin-1-yl)methyl)phenyl)pyrazin-2-yl)pyrrolidin-3-yl)methyl)-[1,2,4]triazolo[1,5-a]pyrimidine] showed an IC50 (MCT4 [1]) of 0.398 nM and a pIC50 (MCT4 [2]) of 8.10.
Work on `Cc1nc2nc(C)c(C[C@@H]3CCN(c4ccc(-c5ccc(CN6CCN(C)CC6)cc5)cn4)C3)c(C)n2n1` [Example 5, (R)-2,5,7-trimethyl-6-((1-(5-(4-((4-methylpiperazin-1-yl)methyl)phenyl)pyridin-2-yl)pyrrolidin-3-yl)methyl)-[1,2,4]triazolo[1,5-a]pyrimidine] yielded an IC50 (MCT4 [1]) of 0.501 nM and a pIC50 (MCT4 [2]) of 7.90.
In the case of `Cc1nc2nc(C)c(C[C@@H]3CCN(c4cnc(-c5ccc(CN6CCN(S(C)(=O)=O)CC6)cc5)cn4)C3)c(C)n2n1` [Example 52, 2,5,7-trimethyl-6-({(3R)-1-[5-(4-{[4-(methylsulfonyl)piperazin-1-yl]methyl}phenyl)pyrazin-2-yl]pyrrolidin-3-yl}methyl)[1,2,4]triazolo[1,5-a]pyrimidine], the IC50 (MCT4 [1]) was 0.2 nM and the pIC50 (MCT4 [2]) was 8.00.

From US12503473B2, “Triazolopyrimidine compounds and their use in treating cancer” (Dizal (Jiangsu) Pharmaceutical Co., Ltd., priority 2018, dated 2025)
